From patent publication US8324245B2, “Quinoline derivative and quinazoline derivative inhibiting self-phosphorylation of hepatocytus proliferator receptor, and medicinal composition containing the same” (Kyowa Hakko Kirin Co., Ltd., priority 2001, dated 2012) come the findings set out here.

pIC50: −log10 of the molar value.

T1 sequence (P08581 25-1390): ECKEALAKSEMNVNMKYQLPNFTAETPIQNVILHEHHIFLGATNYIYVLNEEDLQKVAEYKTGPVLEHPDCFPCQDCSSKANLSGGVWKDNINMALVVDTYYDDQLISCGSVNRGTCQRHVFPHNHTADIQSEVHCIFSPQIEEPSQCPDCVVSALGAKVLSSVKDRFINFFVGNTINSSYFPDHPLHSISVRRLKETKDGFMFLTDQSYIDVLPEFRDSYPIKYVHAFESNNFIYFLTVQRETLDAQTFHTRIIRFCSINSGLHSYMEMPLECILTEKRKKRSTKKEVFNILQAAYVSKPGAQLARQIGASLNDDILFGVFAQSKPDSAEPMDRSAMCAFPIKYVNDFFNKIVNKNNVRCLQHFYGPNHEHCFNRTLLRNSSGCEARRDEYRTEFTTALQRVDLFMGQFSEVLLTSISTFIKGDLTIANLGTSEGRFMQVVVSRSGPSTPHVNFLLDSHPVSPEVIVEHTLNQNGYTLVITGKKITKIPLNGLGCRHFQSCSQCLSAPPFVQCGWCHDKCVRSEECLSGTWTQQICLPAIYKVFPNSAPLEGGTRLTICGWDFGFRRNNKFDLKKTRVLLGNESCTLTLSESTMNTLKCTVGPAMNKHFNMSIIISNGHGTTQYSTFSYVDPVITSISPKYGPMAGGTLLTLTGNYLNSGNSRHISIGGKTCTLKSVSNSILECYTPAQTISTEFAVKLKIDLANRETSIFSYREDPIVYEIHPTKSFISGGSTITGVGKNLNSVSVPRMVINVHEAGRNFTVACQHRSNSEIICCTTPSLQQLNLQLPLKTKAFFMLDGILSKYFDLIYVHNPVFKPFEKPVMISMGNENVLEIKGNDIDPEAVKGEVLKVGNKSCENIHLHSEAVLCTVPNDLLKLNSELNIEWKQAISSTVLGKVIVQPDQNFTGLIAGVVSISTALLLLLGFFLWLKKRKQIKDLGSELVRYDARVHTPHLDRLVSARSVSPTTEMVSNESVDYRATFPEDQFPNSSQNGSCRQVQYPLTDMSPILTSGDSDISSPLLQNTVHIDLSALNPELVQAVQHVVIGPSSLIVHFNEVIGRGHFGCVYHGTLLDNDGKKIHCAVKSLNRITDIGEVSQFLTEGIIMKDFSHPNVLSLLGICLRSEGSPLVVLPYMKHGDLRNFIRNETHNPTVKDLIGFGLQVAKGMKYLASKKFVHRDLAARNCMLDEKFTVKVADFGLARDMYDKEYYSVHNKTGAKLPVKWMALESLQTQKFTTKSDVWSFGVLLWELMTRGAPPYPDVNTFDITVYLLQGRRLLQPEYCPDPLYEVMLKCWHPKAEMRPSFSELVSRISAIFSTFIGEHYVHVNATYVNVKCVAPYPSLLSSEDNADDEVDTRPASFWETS

The test has as its target T1, met (HGF receptor) in human gastric cancer cells MKN45 (Homo sapiens, UniProt P08581).
T1 construct: endogenous in cells; host or cells: MKN45 human gastric cancer cells
As to the kind of experiment: Inhibitory activity against met-autophosphorylation using ELISA method (2), MKN45 cells, HGF-independent. It is filed as cell-based. As for the experimental part:
Cells were cultured with RPMI medium containing 0.1% fetal calf serum in 96-well flat-bottom plate in an amount of 3×10^4 per well, and were incubated at 37° C. overnight. The medium was then replaced by a fresh RPMI medium containing 0.1% fetal calf serum. A solution of the test compound in dimethyl sulfoxide was added to each well, and the incuvation was continued at 37° C. for additional one hr. The medium was removed, the cells were washed with phosphate buffered saline (pH 7.4), and 50 μl of a lysis buffer (20 mM HEPES (pH 7.4), 150 mM NaCl, 0.2% Triton X-100, 10% glycerol, 5 mM sodium orthovanadylate, 5 mM disodium ethylenediaminetetraacetate, and 2 mM Na4P2O7) was then added thereto. The mixture was shaken at 4° C. for 2 hr to prepare a cell extract.
Separately, phosphate buffered saline (50 μl, pH 7.4) containing 5 μg/ml of anti-phospho-tyrosine antibody (PY20; purchased from Transduction Laboratories) was added to a microplate for ELISA (Maxisorp; purchased from NUNC), followed by gentle agitation at 4° C. overnight to coat the surface of the wells with the antibody. After washing of the plate, 300 μl of a blocking solution was added, followed by gentle agitation at room temperature for 2 hr to perform blocking. After washing, the whole quantity of the cell extract was transferred to the wells, and the plate was then allowed to stand at 4° C. overnight. After washing, an anti-HGF receptor antibody (h-Met (C-12), purchased from Santa Cruz Biotechnology) was allowed to react at room temperature for one hr, and, after washing, a peroxidase-labeled anti-rabbit Ig antibody (purchased from Amersham) was allowed to react at room temperature for one hr. After washing, a chromophoric substrate for peroxidase (purchased from Sumitomo Bakelite Co., Ltd.) was added thereto to initiate a reaction. After a suitable level of color development, a reaction termination solution was added to stop the reaction, and the absorbance at 450 nm was measured with a microplate reader.
On to `COc1cc2nccc(Oc3ccc(NC(=O)NC(=O)Nc4ccc(C)cc4)cc3)c2cc1OC` [Example 257, N-(4-methylphenyl)-({[4-(6,7-dimethoxy-quinolin-4-yloxy)anilino]carbonyl}amino)methanamide], for which the pIC50 (in general, the negative decadic logarithm of the IC50, by convention in mol/L) was 6.54.

Compound `COc1cc2nccc(Oc3ccc(NC(=O)NC(=O)Nc4ccc([N+](=O)[O-])cc4)cc3)c2cc1OC` [Example 254, N-(4-nitrophenyl)-({[4-(6,7-dimethoxy-quinolin-4-yloxy)anilino]carbonyl}amino)methanamide] had a pIC50 of 6.44.

With `COc1cc2nccc(Oc3ccc(NC(=S)NC(=O)Cc4cc(F)ccc4F)c(F)c3)c2cc1OC` [Example 96, 1-[2-(2,5-difluorophenyl)acetyl]-3-[4-(6,7-dimethoxyquinolin-4-yloxy)-2-fluorophenyl]thiourea], the pIC50 was 6.77.

`COCCC(=O)NC(=S)Nc1ccc(Oc2ccnc3cc(OC)c(OC)cc23)c(Cl)c1` [Example 180, 1-[3-chloro-4-(6,7-dimethoxyquinolin-4-yloxy)phenyl]-3-(3-methoxy-propionyl)thiourea] had a negative-log IC50 (pIC50) of 5.59.

In turn, `COc1cc2c(Oc3ccc(NC(=O)NC(=O)Cc4ccc(F)cc4)cc3F)ccnc2cc1OCC(O)CN1CCOCC1` (stereo not drawn) [Example 336, 1-{3-Fluoro-4-[7-(2-hydroxy-3-morpholin-1-yl-propoxy)-6-methoxy-quinolin-4-yloxy]-phenyl}-3-[2-(4-fluoro-phenyl)-acetyl]-urea] gave a negative logarithm of the IC50 (pIC50) of 7.48. This pIC50 is 1.89 log units higher than that of the compound before.

Compound `CCCCOCC(=O)NC(=S)Nc1ccc(Oc2ccnc3cc(OC)c(OC)cc23)c(F)c1` [Example 167, 1-(2-butoxyacetyl)-3-[4-(6,7-dimethoxy-quinolin-4-yloxy)-3-fluorophenyl]thiourea] gave a pIC50 of 6.59.

The compound `COc1cc(Oc2ccnc3cc(OC)c(OC)cc23)ccc1NC(=O)NC(=O)Cc1ccc(F)cc1` [Example 38, 1-[4-(6,7-dimethoxyquinolin-4-yloxy)-2-methoxyphenyl]-3-[2-(4-fluorophenyl)acetyl]urea] showed a negative-log IC50 (pIC50) of 7.54.

The compound `COc1cc2nccc(Oc3ccc(NC(=S)NC(=O)Cc4ccccc4C(F)(F)F)cc3F)c2cc1OC` [Example 201, 1-[4-(6,7-dimethoxyquinolin-4-yloxy)-3-fluorophenyl]-3-[2-(2-trifluoromethylphenyl)acetyl]-thiourea] gave a pIC50 of 6.65.

`COc1cccc(CC(=O)NC(=S)Nc2ccc(Oc3ccnc4cc(OC)c(OC)cc34)c(Cl)c2)c1` [Example 186, 1-[3-chloro-4-(6,7-dimethoxyquinolin-4-yloxy)phenyl]-3-[2-(3-methoxyphenyl)acetyl]thiourea] showed a negative-log IC50 (pIC50) of 6.63.

`COc1cc2c(Oc3ccc(NC(=S)NC(=O)Cc4ccccc4)cc3F)ccnc2cc1OCCCn1ccnc1` [Example 307, 1-{3-Fluoro-4-[7-(3-imidazol-1-yl-propoxy)-6-methoxy-quinolin-4-yloxy]-phenyl}-3-phenylacetyl-thiourea] had a pIC50 of 7.24. This pIC50 is 0.61 log units higher than that of the compound before.

In turn, `COc1cc2c(Oc3ccc(NC(=O)NC(=O)Cc4ccc(F)cc4)c(F)c3)ccnc2cc1OCc1ccccc1` [Example 40, N-(4-{[7-(Benzyloxy)-6-methoxy-4-quinolyl]oxy}-2-fluorophenyl)-N′-[2-(4-fluorophenyl)acetyl]urea] showed a pIC50 of 6.62.

`COc1cc2nccc(Oc3ccc(NC(=O)NC(=O)Cc4cc(F)cc(F)c4)cc3F)c2cc1OC` [Example 142, 1-[2-(3,5-difluorophenyl)acetyl]-3-[4-(6,7-dimethoxyquinolin-4-yloxy)-3-fluorophenyl]urea]: the negative-log IC50 (pIC50) is 6.55.

`COc1cc2nccc(Oc3ccc(NC(=O)NC(=O)Nc4ccnn4C)cc3)c2cc1OC` [Example 237, N-(1-methyl-1H-5-pyrazolyl)-({[4-(6,7-dimethoxyquinolin-4-yloxy)anilino]carbonyl}amino)-methanamide] showed a pIC50 of 5.83.

For the compound `COc1cc2nccc(Oc3ccc(NC(=O)CC(=O)Nc4ccc(F)cc4F)cc3F)c2cc1OC` [Example 99, N-(2,4-difluorophenyl)-N′-[4-(6,7-dimethoxy-quinolin-4-yloxy)-3-fluorophenyl]malonamide], the pIC50 was 7.59. This pIC50 lies 1.76 log units higher than the previous one.

In the case of `COc1cc2nccc(Oc3ccc(NC(=O)NC(=O)CSC4CCCCC4)cc3)c2cc1OC` [Example 113, 1-(2-cyclohexylsulfanylacetyl)-3-[4-(6,7-dimethoxyquinolin-4-yloxy)phenyl]urea], the pIC50 was 6.18.

As to `COc1cc2c(Oc3ccc(NC(=S)NC(=O)Cc4ccccc4)cc3F)ccnc2cc1OCCN1CCC(CO)CC1` [Example 284, 1-(3-Fluoro-4-{7-[2-(4-hydroxymethyl-piperidin-1-yl)-ethoxy]-6-methoxy-quinolin-4-yloxy}-phenyl)-3-phenylacetyl-thiourea], the pIC50 was 7.82.

In turn, `COc1cc2c(Oc3ccc(NC(=S)NC(=O)Cc4ccc(Cl)cc4)cc3F)ccnc2cc1OCC(O)CN1CCCCC1` (stereo not drawn) [Example 327, 1-[2-(4-Chloro-phenyl)-acetyl]-3-{3-fluoro-4-[7-(2-hydroxy-3-piperidin-1-yl-propoxy)-6-methoxy-quinolin-4-yloxy]-phenyl}-thiourea] gave a pIC50 of 6.10. Compared with the last compound, the pIC50 is 1.72 log units lower.

Turning to `COc1cc2nccc(Oc3ccc(NC(=O)NC(=O)Cc4ccc(F)cc4)cc3F)c2cc1OC` [Example 23, 1-[4-(6,7-dimethoxyquinolin-4-yloxy)-3-fluoro-phenyl]-3-[2-(4-fluorophenyl)acetyl]urea], the negative-log IC50 (pIC50) is 7.58. Compared with the last compound, the pIC50 is 1.48 log units higher.

`COc1cc2nccc(Oc3ccc(NC(=S)NC(=O)Cc4c(Cl)cccc4Cl)c(F)c3)c2cc1OC` [Example 208, 1-[2-(2,6-dichlorophenyl)acetyl]-3-[4-(6,7-dimethoxyquinolin-4-yloxy)-2-fluorophenyl]thiourea] gave a negative logarithm of the IC50 (pIC50) of 6.59.

`COc1cc2nccc(Oc3ccc(NC(=O)NC(=O)Cc4cccc(F)c4F)c(F)c3)c2cc1OC` [Example 138, 1-[2-(2,3-difluorophenyl)acetyl]-3-[4-(6,7-dimethoxyquinolin-4-yloxy)-2-fluorophenyl]urea]: the pIC50 is 6.55.

`COc1cc2nccc(Oc3ccc(NC(=O)NC(=O)Nc4ccc(F)cc4F)cc3)c2cc1OC` [Example 229, N-(2,4-difluorophenyl)-({[4-(6,7-dimethoxy-quinolin-4-yloxy)anilino]carbonyl}amino)methanamide] showed a negative-log IC50 (pIC50) of 6.56.

Compound `COc1cc2c(Oc3ccc(NC(=S)NC(=O)Cc4ccc(Cl)cc4)cc3F)ccnc2cc1OCC(O)CN1CCCC1` (stereo not drawn) [Example 328, 1-[2-(4-Chloro-phenyl)-acetyl]-3-{3-fluoro-4-[7-(2-hydroxy-3-pyrrolidin-1-yl-propoxy)-6-methoxy-quinolin-4-yloxy]-phenyl}-thiourea] showed a negative logarithm of the IC50 (pIC50) of 7.36.

As to `COc1cc2nccc(Oc3ccc(NC(=S)NC(=O)Cc4ccccc4F)c(F)c3)c2cc1OC` [Example 80, 1-[4-(6,7-dimethoxyquinolin-4-yloxy)-2-fluoro-phenyl]-3-[2-(2-fluorophenyl)acetyl]thiourea], the negative logarithm of the IC50 (pIC50) was 7.52.

`COc1cc2c(Oc3ccc(NC(=O)NC(=O)Cc4ccc(F)cc4)c(F)c3)ccnc2cc1OCCCN1CCN(C)CC1` [Example 51, 1-(2-fluoro-4-{6-methoxy-7-[3-(4-methyl-piperazin-1-yl)-propoxy]quinolin-4-yloxy}phenyl)-3-[2-(4-fluorophenyl)acetyl]urea] had a negative-log IC50 (pIC50) of 6.69.

Regarding `COc1cc2nccc(Oc3ccc(NC(=O)C(C)(C)C(=O)Nc4ccc(F)cc4F)cc3)c2cc1OC` [Example 104, N-(2,4-difluorophenyl)-N′-[4-(6,7-dimethoxy-quinolin-4-yloxy)phenyl]-2,2-dimethylmalonamide], the pIC50 was 6.46.

`COc1cc2nccc(Oc3ccc(NC(=S)NC(=O)Cc4ccccc4Cl)cc3F)c2cc1OC` [Example 87, 1-[2-(2-chlorophenyl)acetyl]-3-[4-(6,7-dimethoxyquinolin-4-yloxy)-3-fluorophenyl]thiourea] had a pIC50 of 6.70. This pIC50 is 0.24 log units higher than that of the compound before.

Take `COc1cc2nccc(Oc3ccc(NC(=O)NC(=O)Nc4ccc(F)c(F)c4)cc3)c2cc1OC` [Example 264, N-(3,4-difluorophenyl)-({[4-(6,7-dimethoxy-quinolin-4-yloxy)anilino]carbonyl}amino)methanamide]: the negative-log IC50 (pIC50) is 6.46.

The compound `COc1cc2nccc(Oc3ccc(NC(=O)NC(=O)Nc4ccc5c(c4)OCCO5)cc3)c2cc1OC` [Example 238, N-(2,3-dihydro-1,4-benzodioxin-6-yl)-({[4-(6,7-dimethoxyquinolin-4-yloxy)anilino]carbonyl}amino)-methanamide] showed a negative logarithm of the IC50 (pIC50) of 5.40.

`COc1cc2nccc(Oc3ccc(NC(=S)NC(=O)Cc4c(F)cccc4F)cc3F)c2cc1OC` [Example 95, 1-[2-(2,6-difluorophenyl)acetyl]-3-[4-(6,7-dimethoxyquinolin-4-yloxy)-3-fluorophenyl]thiourea] gave a pIC50 of 7.38.

Consider `COc1cc2nccc(Oc3ccc(NC(=O)NC(=O)Nc4cccc(C(C)=O)c4)cc3)c2cc1OC` [Example 261, N-(3-acetylphenyl)-({[4-(6,7-dimethoxy-quinolin-4-yloxy)anilino]carbonyl}amino)-methanamide], for which the negative-log IC50 (pIC50) is 6.47.
